# Where two headings read alike, the source gives them in different places.
# Legend:
# [1] = Tests for the biological evaluation of medical devices (ISO 10993); conditions: data not shown
# bacterial = assay: Bacterial reverse mutation test
# [2] = Unbound fraction by equilibrium dialysis, rat plasma; type: in vitro ADME; conditions: 1 μM, equilibrium dialysis 37 °C 4 h
# Protocol: An equilibrium dialysis apparatus, Rapid Equilibrium Dialysis (RED) Device Single-Use Plate with Inserts, 8K MWCO (ThermoFisher Scientific, Waltham, MA, USA), was used to determine the unbound fraction for each compound in human plasma, rat plasma, and medium containing 10% fetal bovine serum (FBS). Plasma or medium was mixed with the test compound (1 μM) and 200 μL aliquots were loaded into the apparatus and dialyzed versus 350 μL of 100 mM phosphate buffer (pH 7.4) at 37 °C for 4 h by rotation at 1000 rpm. The unbound fraction was calculated as the ratio of receiver side (buffer) to donor side (plasma) concentrations.
# [3] = tested on: apoptotic cells in the retinal outer nuclear layer of RCS rats; assay: Intravitreous injection of NK-5962 in RCS rats, TUNEL assay of retinal outer nuclear layer; type: in vivo, rat
# Protocol: NK-5962 powder was dissolved in distilled deionized water at a concentration of 8.2 μg/mL (16 μM). This original stock solution of NK-5962 (8.2 μg/mL) was diluted with saline (0.9% sodium chloride) to make a series of 10-fold dilutions from 8.2 × 10^−4 to 8.2 μg/mL. Twenty male pink-eyed RCS rats (RCS/Jcl-rdy/rdy, p-, CLEA Japan, Inc., Tokyo, Japan) at the age of 4 weeks were assigned to 5 groups (n = 4) that received NK-5962 at 5 different concentrations. Intravitreous injection was performed twice at the age of 4 and 5 weeks (Figure 4A). This study was approved by the Animal Care and Use Committee at the Okayama University (Identifier OKU-2013441) and based on the Animal Welfare and Management Act in Japan.
# RCS rats were anesthetized by intraperitoneal injection of ketamine (87 mg/kg body weight, Daiichi Sankyo, Tokyo, Japan) and xylasine (13 mg/kg, Bayer Japan, Osaka, Japan). Mydriasis was induced by 0.5% tropicamide and 0.5% phenylephrine instillation (Santen Pharmaceutical, Osaka, Japan) and corneal anesthesia was further obtained with 0.4% oxybuprokaine instillation (Santen Pharmaceutical, Osaka, Japan). Under a dissecting microscope, 3 μL of NK-5962 solution and saline (0.9% sodium chloride) was injected into the vitreous of the left eye and the right eye, respectively, with a 30-gauge needle attached to a Hamilton syringe (50 μL 1705 LT SYR; Hamilton Company, Reno, NV, USA). The needle was inserted almost at a perpendicular angle and at 1mm from the corneoscleral limbus to avoid the damage to the lens. Antibiotic (0.5% moxifloxacin, Novartis Pharma Japan, Tokyo, Japan) eye drops were instilled for both eyes. Each rat was housed in a standard rat cage in the 12 h light and dark cycle at the Animal Center of Okayama University. In a separate experiment, 3 rats were placed and maintained in constant darkness after intravitreous injection of NK-5962 at a concentration of 8.2 μg/mL (16 μM).
# Apoptotic cells were detected by terminal deoxynucleotidyl transferase-mediated fluorescein-conjugated dUTP nick-end-labeling (TUNEL) assay, according to the manufacturer’s instructions (In Situ Cell Death Detection Kit, Roche Diagnostics, Mannheim, Germany). The images at the constant exposure time were captured by an Olympus FSX100 microscope that was equipped with the fluorescent filter cube U-MWIBA3. Five photographs in each of 5 retinal vertical sections per eye were taken and an entire frame (220 × 165 μm) of each photograph with ×40 NA0.95 objective lens was used for measurements. The number of TUNEL-positive cells in the outer nuclear layer at each retinal site (a, b, c and d, Figure 4B) was counted in each frame of photographs. The number of TUNEL-positive cells per 1,000 μm^2 of the outer nuclear layer was calculated for comparison by two-factor ANOVA. […]
# [4] = Solubility assay in JP 1st and 2nd fluid; type: physicochemical
# Protocol: The Japanese Pharmacopeia (JP) 1st fluid (pH 1.2) and JP 2nd fluid (pH 6.8) for dissolution testing were used for solubility measurements. The solution of a test compound was prepared by diluting 10 mM NK-5962 in 2 μL DMSO stock solution with 165 μL of JP 1st or 2nd fluid and then mixed at 37 °C for 4 h by rotation at 1000 rpm. After loading the mixed solution into 96-well MultiScreen Filter Plates (product number MSHVN4510, 0.45 μm hydrophilic PVDF membrane; Millipore, Bedford, MA, USA), filtration was performed by centrifugation. The filtrates were mixed with acetonitrile and analyzed by high-performance liquid chromatography-UV detection (HPLC-UV, 254 nm) or by liquid chromatography and tandem mass spectrometry (LC-MS/MS). Solubility was calculated by comparing the peak area of the filtrate mixture with that of a 100 μM standard solution.
# Skin sensitization test = conditions: in vivo
# [5] = PAMPA (parallel artificial membrane permeability assay); type: in vitro ADME; conditions: PAMPA, pH 6.5; 0.2 μM test compound, 37 °C, 4 h
# Protocol: In order to determine the passive membrane diffusion rates, the Corning Gentest Pre-coated PAMPA Plate System was used in the PAMPA test. […] The acceptor plate was then placed on top of the donor plate and incubated at 37 °C without agitation for 4 h. At the end of the incubation, the plates were separated and the solutions from each well of both the acceptor plate and the donor plate were transferred to 96-well plates and mixed with acetonitrile. The final concentrations of compound in both the donor wells and acceptor wells, as well as the concentrations of the initial donor solutions, were analyzed by LC-MS/MS. The permeability of the compound was calculated according to the previous report.
# Eye irritation test = conditions: in vivo
structure (smiles),measurement,setting,value
"CCCCN(CCCC)c1ccc(C=Cc2sc3ccccc3[n+]2CC(=O)O)cc1.[Br-] [NK-5962, 2-[2-[4-(dibutylamino)phenyl]ethenyl]-3-carboxymethylbenzothiazolium bromide]",toxicity in all tests for the biological evaluation of medical devices (ISO 10993),[1],safe
same,"genetic toxicity, bacterial reverse mutation test",bacterial,not toxic
same,Protein-Binding (Non-Binding Ratio) Rat Plasma,[2],0.022
same,percent ratio of the number of TUNEL-positive cells versus saline,[3]; 1.6 μM NK-5962 intravitreous,61%
same,percent ratio of the number of TUNEL-positive cells versus saline,[3]; 16 μM NK-5962 intravitreous,56%
same,EC50,"[3]; 16 μM × 3 μL / (3 + 13) μL, rat vitreous cavity estimated 13 μL, read-out: in vivo EC50 as intravitreous concentration",3 µM
same,EC50,"[3]; Rattus norvegicus, 3 μL intravitreous injection, read-out: EC50 (50% effective concentration), concentration of injected solution",~16 µM
same,solubility at 4 h,"[4]; JP 1st fluid pH 1.2, 37 °C, read-out: Solubility JP1 (pH 1.2)",79 µM
same,Solubility JP2 (pH 6.8),"[4]; JP 2nd fluid pH 6.8, 37 °C, 4 h",low
same,solubility at 4 h,"[4]; JP 2nd fluid pH 6.8, 37 °C, read-out: Solubility JP2 (pH 6.8)",0.2 µM
same,toxicity in the skin sensitization test,Skin sensitization test,not toxic
same,"Papp at 4 h, 0.2 μM",[5],0.31 ×10⁻⁶ cm/s
same,toxicity in the eye irritation test,Eye irritation test,not toxic
